Results reported in patent US20230399666A1, “METHODS AND COMPOSITIONS FOR THE PRODUCTION OF RHAMNOLIPID” (THE REGENTS OF THE UNIVERSITY OF CALIFORNIA, priority 2022, published 2023).

What was measured:
[1] = tested on: M. alcahphilum; test: Antimicrobial activity of Ptet inducer anhydrotetracycline, evaluated on methanol; assay type: cell-based, Methylotuvimicrobium alcaliphilum
Protocol: Luria-Bertani (LB) broth and agar plates are routinely used to culture E. coli cells at 37° C. For routine cultivation of M. alcahphilum strain WT (wild type) and its derivatives, Pi (π) media with 3% (w/v) NaCl is used as described in Collins and Kaluzhnaya.^56 When needed, kanamycin (Kan) is added to the growth medium at 100 μg/mL for ts. alcahphilum and 50 μg/mL for E. coli cultures. Ampicillin is added to the growth medium at 100 μg/mL. M alcahphilum cell cultures are grown as batch cultures, either 4 mL culture in 20 mL anaerobic glass tubes or 10 mL culture in 50 mL serum vials, under a methane (99.9%; Airgas): air atmosphere (1:1). Cell cultures are incubated at 30° shaking at 220 rpm. Cell growth is measured as optical density (OD 600 nm) using Spectronic 200E spectroscope at time points mentioned in results and discussion. Single colony isolates and transformant selections are performed on Pi media agar plates incubated in anaerobic jars (Oxoid; Remel) under a methane-air atmosphere (1:1). For M. alcahphilum (pDA17) induction, antimicrobial activity of Ptet inducer, anhydrotetracycline (aTC) is first evaluated (FIG. 7) on methanol, it is observed that aTC antimicrobial effect on M. alcahphilum is apparent at concentration >2.5 μg/mL. Thus, based on the observation and previous report 33 , concentration of 1 μg/mL aTC is used for optimal gene expression. […]

[2] = tested on: E. coli; conditions: literature; cited from earlier work
[3] = tested on: M. alcaliphilum strain DASS; test: Rhamnolipid tolerance of the adapted strain after adaptive laboratory evolution; assay type: cell-based, Methylotuvimicrobium alcaliphilum
Protocol: A course of adaptive laboratory evolution to allow M. alcaliphilum to grow on CH4 in the RLs is followed for four months. During this adaptation, M. alcaliphilum strain DSM19304 (hereafter referred as WT, wild type) is subjected to gradually increasing RL concentration starting from 0.5 g/L to 5 g/L (FIG. 2B). At the end of multiple transfers over a period of four months, an M. alcaliphilum strain tolerant to RLs (strain DASS) is obtained.
M. alcahphilum strain DSM19304 is grown in batch cultures of 10 mL Pi media in 50 mL serum vials under a methane-air atmosphere at 30° C. with agitation at 200 rpm. To adapt the cells to grow in the presence of RLs, 0.5 g/L RL (90% mono-RL, Millipore Sigma) is supplemented to the starting cell culture. The concentration of RLs is increased gradually and stepwise (1, 1.5, 2, 3, 4 and 5 g/L) to achieve a final strain of M. alcahphilum tolerant to 5 g/L RL. A 0.1% inoculum is manually transferred from a growing batch culture to a fresh culture in 48-60h. The RL concentration in the media is increased to next higher concentration when the OD 600 nm at 48 h of the growing batch culture with RL reached similar OD600 to WT (>1.0) at the end of 48 h. After the adaptation, single colonies of M. alcahphilum strain DASS are isolated on Pi media agar plates. Multiple single colony isolates are confirmed to be M. alcahphilum via 16S rRNA sequencing to rule out possibility of co-contaminants. No differences are observed in growth of multiple single colonies that are tested, one clone is selected for further analysis and plasmid transformation.

[4] = tested on: M. alcaliphilum strain DSM19304 (WT); test: Inhibitory effect of rhamnolipids on growth (OD600) of M. alcaliphilum wild type on CH4; assay type: cell-based, Methylotuvimicrobium alcaliphilum
Excerpt: M. alcaliphilum converts methane by sequential oxidation to formaldehyde, which enters the central carbon metabolism through the RUMP pathway^39. M. alcaliphilum produces high amounts of glycogen, sucrose and ectoine with smaller amounts of lactate, formate, succinate and no known reports of RLs^38,40,41. Rhamnolipids are used as biocontrol/anti-microbial agents, and increasing rhamnolipid concentrations are found to negatively impact growth of Gram-negative and Gram-positive heterologous hosts, E. coli, Bacillus subtilis and Corynebacterium glutamicum^23. Therefore, M. alcaliphilum growth is tested in the presence of RLs. […] The RL toxicity to M. alcaliphilum is much higher than reported concentrations in other Gram-negative host like E. coli (>90 g/L). The toxicity of RLs to M. alcaliphilum required adaptive evolution to permit the strain to produce rhamnolipids.
Luria-Bertani (LB) broth and agar plates are routinely used to culture E. coli cells at 37° C. For routine cultivation of M. alcahphilum strain WT (wild type) and its derivatives, Pi (π) media with 3% (w/v) NaCl is used as described in Collins and Kaluzhnaya.^56 When needed, kanamycin (Kan) is added to the growth medium at 100 μg/mL for ts. alcahphilum and 50 μg/mL for E. coli cultures. Ampicillin is added to the growth medium at 100 μg/mL. M alcahphilum cell cultures are grown as batch cultures, either 4 mL culture in 20 mL anaerobic glass tubes or 10 mL culture in 50 mL serum vials, under a methane (99.9%; Airgas): air atmosphere (1:1). Cell cultures are incubated at 30° shaking at 220 rpm. Cell growth is measured as optical density (OD 600 nm) using Spectronic 200E spectroscope at time points mentioned in results and discussion. Single colony isolates and transformant selections are performed on Pi media agar plates incubated in anaerobic jars (Oxoid; Remel) under a methane-air atmosphere (1:1). For M. alcahphilum (pDA17) induction, antimicrobial activity of Ptet inducer, anhydrotetracycline (aTC) is first evaluated (FIG. 7) on methanol, it is observed that aTC antimicrobial effect on M. alcahphilum is apparent at concentration >2.5 μg/mL. Thus, based on the observation and previous report 33 , concentration of 1 μg/mL aTC is used for optimal gene expression. M. alcahphilum (pDA17) cultures are induced with anhydrotetracycline (1 μg/mL) at time of inoculation^33.

| Molecule | concentration at which antimicrobial effect is apparent [1] [µg/mL] | reported toxic concentration [2] [g/L] | fold higher concentration in which the adapted strain grows compared to parent strain ([3]; DASS vs parent strain) [fold] | tolerated rhamnolipid concentration ([3]; evolved strain DASS, grown on CH4, listed as RL) [g/L] | growth with RL in the absence of CH4 (RL as carbon source) ([3]; strain DASS, 5 g/L RL, no CH4) | growth inhibition ([4]; 1 g/L RL amendment, 36 hours of culture) | concentration inhibitory to growth ([4]; M. alcaliphilum DSM19304) [g/L] | reduction in final optical density ([4]; medium amended with 0.1 g/L RL, 36 hours of culture) [%] | MIC ([4]; parent strain DSM19304) [µg/mL] | concentration of rhamnolipids that cannot be tolerated ([4]; strain DSM19304, surfactant effects) [g/L] |
| --- | --- | --- | --- | --- | --- | --- | --- | --- | --- | --- |
| Cc1c2c(c(O)c3c(O)cccc13)C(=O)[C@]1(O)C(=O)C(C(N)=O)=C(O)[C@@H](N(C)C)[C@@H]1C2 [aTC, anhydrotetracycline] | > 2.5 | – | – | – | – | – | – | – | – | – |
| rhamnolipids | – | > 90 | 10 | 5 | did not promote growth | almost complete inhibition | < 0.05 | 50 | 500 | 0.5 |
